Measurements from publication PMC5797642 (Frontiers in Molecular Neuroscience, 2018).

Experiments:
[1] = target: T1, Kv12.1 (Elk1) (Homo sapiens, UniProt Q96L42); experiment: whole-cell patch clamp, steady-state outward current at […] mV; format: cell-based; settings: activator, pH 7.4, CHO cells, room temperature
T1 construct: gene KCNH8; full-length channel from pcDNA3.1-IRES-eGFP, transient expression in CHO dhFR- cells
T1 sequence (Q96L42 1-1107): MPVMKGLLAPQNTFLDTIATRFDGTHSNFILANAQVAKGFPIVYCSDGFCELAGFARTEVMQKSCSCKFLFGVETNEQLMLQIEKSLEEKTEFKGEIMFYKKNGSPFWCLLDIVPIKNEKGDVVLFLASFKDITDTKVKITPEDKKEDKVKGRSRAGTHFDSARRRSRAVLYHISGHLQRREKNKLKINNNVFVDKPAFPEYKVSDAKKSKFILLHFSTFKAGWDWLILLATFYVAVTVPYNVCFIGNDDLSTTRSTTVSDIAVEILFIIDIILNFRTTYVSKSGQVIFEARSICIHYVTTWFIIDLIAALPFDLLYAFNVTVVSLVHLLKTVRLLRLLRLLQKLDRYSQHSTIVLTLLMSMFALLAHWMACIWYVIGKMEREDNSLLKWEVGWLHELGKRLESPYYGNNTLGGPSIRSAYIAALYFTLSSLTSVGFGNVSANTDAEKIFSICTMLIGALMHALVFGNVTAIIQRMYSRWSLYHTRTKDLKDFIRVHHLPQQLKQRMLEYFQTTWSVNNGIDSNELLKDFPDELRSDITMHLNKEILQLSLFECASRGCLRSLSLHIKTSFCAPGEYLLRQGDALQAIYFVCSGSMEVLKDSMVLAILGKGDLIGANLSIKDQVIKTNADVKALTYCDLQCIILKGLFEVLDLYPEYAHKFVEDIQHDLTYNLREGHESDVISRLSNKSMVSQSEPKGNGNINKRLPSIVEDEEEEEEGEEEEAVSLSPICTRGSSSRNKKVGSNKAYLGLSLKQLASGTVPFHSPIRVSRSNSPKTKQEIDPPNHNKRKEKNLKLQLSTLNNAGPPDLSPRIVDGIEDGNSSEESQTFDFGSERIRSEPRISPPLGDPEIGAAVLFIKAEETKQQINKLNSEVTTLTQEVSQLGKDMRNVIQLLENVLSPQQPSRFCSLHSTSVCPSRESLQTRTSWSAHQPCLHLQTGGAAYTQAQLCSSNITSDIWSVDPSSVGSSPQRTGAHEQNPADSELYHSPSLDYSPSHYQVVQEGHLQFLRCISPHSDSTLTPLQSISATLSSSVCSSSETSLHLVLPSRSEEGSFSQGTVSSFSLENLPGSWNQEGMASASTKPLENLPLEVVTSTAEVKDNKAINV

[2] = target: T1, Kv12.1 (Elk1); experiment: whole-cell patch clamp; format: cell-based; settings: weak inhibitor; 100 mM; n = 9; CHO cells, room temperature

I100mM TEA/IStart [2]	Structure (SMILES)	% potentiation at 3 mM [1]
–	Nc1cccnc1 [3-AP, 3-aminopyridine]	~ 7%
0.83 ± 0.01	CC[N+](CC)(CC)CC [TEA, tetraethylammonium]	–
